Data from ChEMBL document CHEMBL3217551, “A concise synthesis of the potent inflammatory mediator 5-oxo-ETE” (Medchemcomm, 2012).

Legend:
[1] = molecular target: Oxoeicosanoid receptor 1 (Homo sapiens, UniProt Q8TDS5); experiment: Agonist activity at OXE receptor (unknown origin) expressed in HEK293 cells co-expressing Galpha subunit G16 assessed as calcium mobilization using Oregon Green 488 BAPTA-1/AM by fluorescence assay; assay type: functional, cell-based
[2] = Stability of the compound after 36 hrs by NMR spectroscopy; assay type: physicochemical
[3] = Stability of the compound after 48 hrs by NMR spectroscopy; assay type: physicochemical
[4] = Stability of the compound at room temperature after 19 days by NMR spectroscopy in presence of CDCl3; assay type: ADME; conditions: 456 h
[5] = Stability of the compound in DMSO-d6 at room temperature after 4 to 21 days by NMR spectroscopy in presence of CDCl3; assay type: ADME

Chain of Oxoeicosanoid receptor 1 (Q8TDS5 whole entry): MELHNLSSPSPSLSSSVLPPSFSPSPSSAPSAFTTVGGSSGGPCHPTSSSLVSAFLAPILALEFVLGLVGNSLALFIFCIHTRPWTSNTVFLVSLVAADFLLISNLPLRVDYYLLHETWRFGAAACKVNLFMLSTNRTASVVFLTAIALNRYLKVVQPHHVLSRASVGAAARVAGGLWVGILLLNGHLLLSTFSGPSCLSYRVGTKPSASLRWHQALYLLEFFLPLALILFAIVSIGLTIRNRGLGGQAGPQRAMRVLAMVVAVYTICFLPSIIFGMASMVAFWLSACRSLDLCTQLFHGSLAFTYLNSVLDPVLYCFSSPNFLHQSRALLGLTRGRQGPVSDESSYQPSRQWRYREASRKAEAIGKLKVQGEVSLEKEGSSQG

## CCCCC/C=C\C/C=C\C/C=C\C=C\C(=O)CCCC(=O)O [5-OXO-ETE]
[1]
  EC50: 67 nM
[2]
  Stability: Stable
[3]
  Stability: Unstable
[4]
  Stability: Stable
[5]
  Stability: Stable
